Reference: article PMC7162859 (Scientific Reports, 2020)
Read-outs that look alike come from different tables or passages of the source.

What was measured:
[1] = system: TP53(-/-) GBM cells; assay: In vitro cytotoxicity assay (CellTiter-Glo, 72 hours); assay type: cell-based, murine; settings: for EC50: Mus musculus, 72 h, 72 hours, read-out: Ispinesib EC50
Procedure: (§1) TP53(−/−) and PTEN(−/−) cells were seeded into 96-well plates (pre-coated with fibronectin) at a density of 5,000 cells per well in DMEM media with 0.5% FBS, 1% nitrogen supplement, 10 ng/ml of FGF and 10 ng/ml of PDGFAA. Human GBM1A cells were seeded into 96 well plates (pre-coated with laminin) in DMEM media with 1% neuroPlex supplement, 20 ng/ml of EGF and 20 ng/ml of […]. After 24 hours (~70% confluency), cells were exposed to ispinesib (n = 10 wells per concentration) from 0.025–1000 nM with or without 500 nM elacridar co-treatment. The plates were incubated for 72 hours, cell viability measured using CellTiter-Glo ATP-based assay, and read on a luminometer. The dose-response data were fit to the Hill equation.
(§2) In vitro potency data was fitted to “log(inhibitor) vs. normalized response - variable slope” equation in GraphPad Prism version 6.04 (GraphPad, La Jolla, CA) to determine half-maximal effective concentration (EC50).

[2] = system: PTEN(-/-) GBM cells; assay: as above; assay type: cell-based, murine; settings: for EC50: Mus musculus, 72 h, 72 hours, read-out: Ispinesib EC50
Procedure: as §1, §2

[3] = Brain distribution after single intraperitoneal dose in FVB wild-type, Bcrp1-/-, Mdr1a/b-/- and Mdr1a/b-/- Bcrp1-/- mice; assay type: in vivo, mouse (FVB); settings: for DA (Distribution advantage) / concentration at 2 h / concentration at 6 h / Kp at 2 h / Kp at 6 h: 10 mg/kg i.p.; for concentration at 2 h / concentration at 6 h / Kp at 2 h / Kp at 6 h: FVB, mouse, 10 mg/kg; for concentration at 2 h / concentration at 6 h: intraperitoneal; for Kp at 2 h / Kp at 6 h: brain/plasma, ip, read-out: Kp brain (Cbrain/Cplasma)
Procedure: At 2 and 6 hours following administration of ispinesib, whole blood and brain samples were harvested, and blood samples were centrifuged for plasma separation. Additional details on the conduct of in vivo pharmacokinetic studies are described in the supplementary methods. The drug concentrations in all samples were measured by a specific and sensitive LC-MS/MS assay for ispinesib.
Kp=CbrainCplasma (Equation 4)
DA= Kp, knockoutKp, wildtype (Equation 5)

## Cc1ccc(C(=O)N(CCCN)[C@@H](c2nc3cc(Cl)ccc3c(=O)n2Cc2ccccc2)C(C)C)cc1 [Ispinesib, N-(3-aminopropyl)-N-[(1 R)-1-(3-benzyl-7-chloro-4-oxoquinazolin-2-yl)-2-methylpropyl]-4-methylbenzamide]
[1]; [Elacridar] 0 nM
  EC50: 14.4 ± 1.2 nM
  Hill Coefficient: 0.6 ± 0.02
[1]; [Elacridar] 500 nM
  EC50: 3.9 ± 0.5 nM
  Hill Coefficient: 0.4 ± 0.01
[2]; [Elacridar] 0 nM
  EC50: 10 ± 0.9 nM
  Hill Coefficient: 0.6 ± 0.02
[2]; [Elacridar] 500 nM
  EC50: 3.3 ± 0.4 nM
  Hill Coefficient: 0.4 ± 0.01
[3]; 2 hrs, Bcrp1a/b-/-
  DA (Distribution advantage): 1
  Kp at 2 h: 0.08
[3]; 2 hrs, Mdr1a/b-/-
  DA (Distribution advantage): 3
  Kp at 2 h: 0.35
[3]; 2 hrs, Mdr1a/b-/- Bcrp1a/b-/-
  DA (Distribution advantage): 28
  Kp at 2 h: 3.07
[3]; 2 hrs, Wild-type
  DA (Distribution advantage): 1
  Kp at 2 h: 0.11
[3]; 6 hrs, Bcrp1a/b-/-
  DA (Distribution advantage): 1
  Kp at 6 h: 0.15
[3]; 6 hrs, Mdr1a/b-/-
  DA (Distribution advantage): 10
  Kp at 6 h: 1.52
[3]; 6 hrs, Mdr1a/b-/- Bcrp1a/b-/-
  DA (Distribution advantage): 33
  Kp at 6 h: 5.2
[3]; 6 hrs, Wild-type
  DA (Distribution advantage): 1
  Kp at 6 h: 0.16
[3]; brain, 2 hrs, Bcrp1a/b-/-, read-out: Cbrain
  concentration at 2 h: 140 ± 20 ng/mL
[3]; brain, 2 hrs, Mdr1a/b-/- Bcrp1a/b-/-, read-out: Cbrain
  concentration at 2 h: 3770 ± 670 ng/mL
[3]; brain, 2 hrs, Mdr1a/b-/-, read-out: Cbrain
  concentration at 2 h: 580 ± 140 ng/mL
[3]; brain, 2 hrs, Wild-type, read-out: Cbrain
  concentration at 2 h: 180 ± 90 ng/mL
[3]; brain, 6 hrs, Bcrp1a/b-/-, read-out: Cbrain
  concentration at 6 h: 150 ± 30 ng/mL
[3]; brain, 6 hrs, Mdr1a/b-/- Bcrp1a/b-/-, read-out: Cbrain
  concentration at 6 h: 5590 ± 2850 ng/mL
[3]; brain, 6 hrs, Mdr1a/b-/-, read-out: Cbrain
  concentration at 6 h: 1100 ± 100 ng/mL
[3]; brain, 6 hrs, Wild-type, read-out: Cbrain
  concentration at 6 h: 140 ± 80 ng/mL
[3]; plasma, 2 hrs, Bcrp1a/b-/-, read-out: Cplasma
  concentration at 2 h: 1740 ± 420 ng/mL
[3]; plasma, 2 hrs, Mdr1a/b-/- Bcrp1a/b-/-, read-out: Cplasma
  concentration at 2 h: 1590 ± 1070 ng/mL
[3]; plasma, 2 hrs, Mdr1a/b-/-, read-out: Cplasma
  concentration at 2 h: 1750 ± 730 ng/mL
[3]; plasma, 2 hrs, Wild-type, read-out: Cplasma
  concentration at 2 h: 1610 ± 720 ng/mL
[3]; plasma, 6 hrs, Bcrp1a/b-/-, read-out: Cplasma
  concentration at 6 h: 1060 ± 400 ng/mL
[3]; plasma, 6 hrs, Mdr1a/b-/- Bcrp1a/b-/-, read-out: Cplasma
  concentration at 6 h: 1030 ± 210 ng/mL
[3]; plasma, 6 hrs, Mdr1a/b-/-, read-out: Cplasma
  concentration at 6 h: 870 ± 540 ng/mL
[3]; plasma, 6 hrs, Wild-type, read-out: Cplasma
  concentration at 6 h: 870 ± 540 ng/mL
[3]; from brain distribution in transporter-deleted mice
  efflux transporter substrate status: a substrate for P-gp and Bcrp transporters
